From BigSolDB 2.1

CCCSc1ccc2nc(NC(=O)OC)[nH]c2c1
solubility (mole fraction)
Details | 278.15 K | 283.15 K | 288.15 K | 293.15 K | 298.15 K | 303.15 K | 308.15 K | 313.15 K | 318.15 K | 323.15 K
in acetone | 0.00151 | 0.0018 | 0.00213 | 0.00254 | 0.00297 | 0.00344 | 0.00402 | 0.00463 | 0.00535 | 0.00613
in isopropanol | 0.000106 | 0.00013 | 0.000158 | 0.000192 | 0.000229 | 0.000276 | 0.00033 | 0.000388 | 0.000453 | 0.000532
in methanol | 8.85e-05 | 0.000109 | 0.000132 | 0.000159 | 0.000193 | 0.00023 | 0.000273 | 0.000327 | 0.000381 | 0.000448
in water | 1.59e-07 | 2.16e-07 | 2.9e-07 | 3.99e-07 | 5.31e-07 | 6.93e-07 | 9.18e-07 | 1.19e-06 | 1.56e-06 | 1.98e-06
